Laboratory results from patent US9938316B2, “Selective inhibitors of α2 isoform of Na,K-ATPase and use thereof for reduction of intra-ocular pressure and as cardiotonic agents” (priority 2013, dated 2018).

Columns and labels:
[1] = test system: intra-ocular pressure (IOP) of rabbits; assay: 4-aminopyridine (4AP)-induced ocular hypertension in rabbits; assay type: in vivo, New Zealand white rabbits; conditions: for Time IOP is maintained at the low level: 1 mM; for Time IOP is maintained at the low level / Time IOP is held at the low level: single drop; for Order of relative effects on IOP: all at 0.1 mM, 1.5 hours after 4AP, average of three experiments
[2] = test system: intra-ocular pressure (IOP) of rabbits; assay: IB-MECA-induced ocular hypertension in rabbits; assay type: in vivo, New Zealand white rabbits; conditions: 1 mM applied after IB-MECA
Description: IB-MECA induces acute ocular hypertension by a different and well-defined mechanism. Namely, IB-MECA is a selective agonist of the A3-adenosine receptor, and rises aqueous humour inflow and IOP by activating Cl channels of the NPE cells (18, 19). […] FIG. 8A depicts the effects of DMe (0.1-1 mM) applied prior to the IB-MECA, and a similar result was obtained for DGlyN (not shown). FIG. 8B depicts effects of digoxigenin, DGlyN and DMe (1 mM) applied after the IB-MECA.
New Zealand white rabbits (3-3.5 kg) about 1 year old, of either sex, were housed individually in separate cages in animal room conditions on a reversed, 12-hour dark/light cycle. For the experiments the animals were transferred to rabbit restrainers in a quiet and calm atmosphere (FIG. 1). […] Animal care and treatment were subject to the approval of the institutional committee for animal experiments, Weizmann Institute IACUC permission (no 04270911-2).
IOP (mm Hg) of rabbits was measured using a calibrated Pneumatonometer (Model 30, Reichert technologies, FIG. 1). A local anesthetic Oxybuprocaine HCl (0.4%, 25 μl) was applied to each cornea about a minute before IOP measurements. Two baseline IOP readings were taken before topical administration of the CG (or PBS as control) and after half an hour (Zero time). […] At zero time one drop of 4AP (40 mg/ml, 30 μl) or IB-MECA (1 μM, 30 μl) was administered to both eyes of each rabbit IOP measurements were made at different times as indicated in each experiment. In the experiments for which the IOP was elevated for several hours, 4AP was added every […] or IB-MECA every 2 hours. […] In all cases the figures depict the average effect on IOP (i.e for four or six eyes) compared to control ±SEM. […] Significance of differences from the control was calculated by the unpaired Students t-test (p values), p values <0.05 were considered significant. Corneal thickness (μm) was measured using an ultrasonic pachymeter (Sonogage pachometer, Cleveland, USA), before and during the experiment with CG and 4AP treatments. The values represent averages of three independent measurements for each eye.

[3] = test system: Na,K-ATPase α2β3 isoform complex; assay: biochemical; design: species or system human; conditions: ratio of Ki, Table 6
Excerpt: Human β1, β2 and β3 were cloned into the pHIL-D2 expression vector containing the human α1 or α2. pHIL-D2 expression vectors containing porcine (p) α1, human (h) α1 or human α2 with Hisx10 tagged porcine β1 were previously generated (7, 9). Human β1 (Accession: P05026), human β2 (Accession: P14415) and human β3 (Accession: […]) cDNAs in pSD5 vector were a gift from K. Geering Univ. Lausanne Switzerland. The open reading frames and flanking regions of hβ1, hβ2 and hβ3 (in pSD5) were amplified separately by polymerase chain reaction (PCR) using synthetic primers containing BglII and SalI cleavage sites. Each one of the amplified fragments were digested with BglII and SalI and ligated to BglII and SalI treated plasmid pHIL-D2-(pα1/His10pβ1) to generate pHIL-D2 (pα1/His10hβ1or2or3). hβ1, hβ2 and hβ3 containing fragments were excised from pHIL-D2-(pα1/His10hβ1or2or3) and subcloned into pHIL-D2-(hα1/His10pβ1) or pHIL-D2-(hα2/His10pβ1) to produce pHIL-D2-(hα1/His10hβ1or2or3) and pHIL-D2-(hα2/His10hβ1or2or3). The newly created plasmids were analyzed for correct integration and correct sequence of the insert by restriction enzymatic digestions and sequencing. DNA of each construct was prepared in large quantities in E. coli XL-1 Blue for Pichia pastoris transformation.
(§1) Inhibition of Na,K-ATPase activity of the detergent-soluble α1β1, α2β1, and α3β1 complexes by CG's was determined as described (6) using either the αβ or αβFXYD1 complexes. […] The K0.5K was estimated by varying K concentration in a medium containing a fixed total K+choline chloride of 60 mM, and constant NaCl of 140 mM. Curves were fitted to the Hill function v=Vmax*[S]^n/([S]^n+K^n), where S is the K concentration, n is the Hill coefficient and K^n is K0.5K. For comparison of different curves the ratio v/Vmax for each curve was calculated and replotted. In experiments to assess inhibition of Na,K-ATPase activity by cardiac glycosides of the present invention, the percent inhibition VCG/V0 was calculated and Ki values were obtained by fitting the data to the function VCG/V0=Ki/([CG]+Ki)+ c. Inhibition was estimated in 3-8 separate experiments and average Ki values ±SEM were calculated. Significance of differences between Kiα1 and Kiα2 was calculated by the unpaired Student's t-test (p values). […] P values <0.05 were considered significant.

[4] = target: Na,K-ATPase α1β1 isoform complex (Homo sapiens, UniProt P05023); assay: biochemical; design: made in house; host or cells: Pichia pastoris SMD1165; conditions: Ki, nM ± SEM α1β1, Table 6
Description: Methods for transformation, culture of P. pastoris clones, protein expression of Na,K-ATPase human isoforms (α1β1, α2β1, α3β1), membrane preparation, solubilization of membranes in DDM, and purification on BD-Talon beads have been described in detail (6-9, 11, 25). In initial experiments the three purified isoform complexes (0.3-0.5 mg/ml) were eluted from the BD-Talon beads in a solution containing Imidazole 170 mM, NaCl 100 mM; Tricine.HCl 20 mM pH 7.4; C12E8, 0.1 mg/ml; SOPS 0.07 mg/ml cholesterol 0.01 mg/ml, glycerol 25%. In later experiments the isoforms complexes were reconstituted with purified FXYD1 on the BD-Talon beads together as described in detail in (10, 11) prior to elution of α1β1FXYD1, α2β1FXYD1 and α3β1FXYD1 complexes. The proteins were stored at −80° C. Protein concentration was determined with BCA (B9643 Sigma).
as §1

| SMILES | Time IOP is maintained at the low level ([1]; 4AP every two hours) | Order of relative effects on IOP [1] | Wash-out time/rate compared with other cardiac glycosides ([1]; equal concentrations, 4AP every two hours) | Duration of the effect compared with digoxigenin [2] | Effect on IB-MECA-induced ocular hypertension [2] | Selectivity α1β1/α2β3 [3] | Time IOP is held at the low level ([1]; 0.2 mM, 4AP every two hours) [h] | Time IOP is held at the low level ([1]; 0.5 mM, 4AP every two hours) [h] | Time IOP is held at the low level ([1]; 2 mM, 4AP every two hours) [h] | Ki [4] [nM] |
| --- | --- | --- | --- | --- | --- | --- | --- | --- | --- | --- |
| CC1CN(CC(N)=O)CCC(OC2C(O)CC(OC3C(O)CC(OC4CCC5(C)C(CCC6C5CC(O)C5(C)C(C7=CC(=O)OC7)CCC65O)C4)OC3C)OC2C)O1 (centres unmarked) [DGlyN] | 3.5 h | DGlyN≈DMe≈digoxigenin>digoxin>ouabain | slightly faster than for DMe | significantly greater | almost the same as seen with 4AP |  |  |  |  |  |
| CC1CN(C)CCC(OC2C(O)CC(OC3C(O)CC(OC4CCC5(C)C(CCC6C5CC(O)C5(C)C(C7=CC(=O)OC7)CCC65O)C4)OC3C)OC2C)O1 (centres unmarked) [DMe] | about 5.5 hours | DGlyN≈DMe≈digoxigenin>digoxin>ouabain |  | significantly greater | almost the same as seen with 4AP | 9.5 | 2.5 | 4.5 | 5.8 | 103 ± 5.6 |
